In article PMC7324522, “Targeting a critical step in fungal hexosamine biosynthesis” (The Journal of Biological Chemistry, 2020):

How the values were obtained:
AfGna1 [1] = target: T1, AfGna1 (Aspergillus fumigatus, UniProt Q4WCU5); assay: bio-layer interferometry, confirmed by isothermal titration calorimetry; format: binding; conditions: read-out: equilibrium dissociation constant
T1 construct: gene AFUA_6G02460; GST fusion (pGEX6P-1) from E. coli BL21(DE3) pLysS, GST tag cleaved with PreScission; obligate homodimer; 164-165 residues modelled; biotinylated for BLI
T1 sequence (Q4WCU5 1-190): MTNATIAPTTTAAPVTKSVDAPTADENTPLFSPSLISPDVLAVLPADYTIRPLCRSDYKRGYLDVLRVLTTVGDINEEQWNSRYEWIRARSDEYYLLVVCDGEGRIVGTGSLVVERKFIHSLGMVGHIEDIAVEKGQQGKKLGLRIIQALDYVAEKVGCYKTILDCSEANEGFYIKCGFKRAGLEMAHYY

AfGna1 [2] = target: T1, AfGna1; assay: bio-layer interferometry, biotinylated protein on SSA biosensors; format: binding

Structure (SMILES) | Kd (AfGna1 [1]) [µM] | Kd (AfGna1 [2]) [µM]
Clc1ccccc1-c1nnc[nH]1 [compound 1, fragment hit 1] | 6 | 
Nc1cccc(-c2nc[nH]n2)c1Cl [compound 2, 2-chloro-3-(1,2,4-triazol-3-yl)aniline] |  | 0.8
OCCN(CCO)c1cc(Cl)c(-c2nc[nH]n2)c(Cl)c1 [compound 3, 2,2′-((3,5-dichloro-4-(1,2,4-triazol-3-yl)phenyl)azanediyl)bis(ethan-1-ol)] |  | 5
